# Assay results taken from patent US20250325688A1, “ANTIBODY-DRUG CONJUGATE CONTAINING PROTEIN DEGRADATION AGENT BIOACTIVE COMPOUND, METHOD FOR PREPARING SAME, AND USE THEREOF” (Medilink Therapeutics (Suzhou) Co., Ltd., priority 2022, published 2025).
# Read-outs that look alike come from different tables or passages of the source.
# T1: human B7H3-4IgG-his (human) (UniProt Q5ZPR3)
# T1 sequence: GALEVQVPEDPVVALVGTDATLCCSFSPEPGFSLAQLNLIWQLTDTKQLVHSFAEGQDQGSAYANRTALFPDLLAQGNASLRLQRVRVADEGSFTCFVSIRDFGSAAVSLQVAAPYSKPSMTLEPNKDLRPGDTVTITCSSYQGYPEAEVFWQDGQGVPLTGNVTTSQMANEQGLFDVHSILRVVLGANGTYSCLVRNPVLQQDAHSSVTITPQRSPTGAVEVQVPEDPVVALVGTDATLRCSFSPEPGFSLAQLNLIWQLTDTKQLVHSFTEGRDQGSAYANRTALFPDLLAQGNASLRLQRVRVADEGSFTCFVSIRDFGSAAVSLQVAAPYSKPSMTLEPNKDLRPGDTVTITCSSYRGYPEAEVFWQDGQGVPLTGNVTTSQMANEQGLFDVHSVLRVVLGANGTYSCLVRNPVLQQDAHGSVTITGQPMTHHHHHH
# T2: B7H3 on tumor cells (MCF-7, A549, PC-3) (human) (UniProt Q5ZPR3)
# T2 sequence (looked up): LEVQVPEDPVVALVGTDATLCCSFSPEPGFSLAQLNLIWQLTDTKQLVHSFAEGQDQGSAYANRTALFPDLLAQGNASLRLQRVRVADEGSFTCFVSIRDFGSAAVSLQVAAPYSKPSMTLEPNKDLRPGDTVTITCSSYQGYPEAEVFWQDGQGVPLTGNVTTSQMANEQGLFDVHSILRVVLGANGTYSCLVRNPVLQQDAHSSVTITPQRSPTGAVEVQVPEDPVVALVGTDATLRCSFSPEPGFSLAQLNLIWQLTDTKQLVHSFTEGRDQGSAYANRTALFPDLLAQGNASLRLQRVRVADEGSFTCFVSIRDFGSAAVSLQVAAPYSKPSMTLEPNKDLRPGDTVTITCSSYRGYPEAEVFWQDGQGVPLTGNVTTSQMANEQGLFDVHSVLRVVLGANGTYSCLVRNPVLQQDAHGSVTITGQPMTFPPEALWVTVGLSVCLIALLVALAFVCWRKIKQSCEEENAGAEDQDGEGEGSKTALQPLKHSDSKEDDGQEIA
# B1: B7H3-C1 antibody (antibody, INN chains, looked up, V domains shown)
# VH: QVQLVQSGAEVKKPGSSVKVSCKASGYTFTNYVMHWVRQAPGQGLEWMGYINPYNDDVKYNEKFKGRVTITADESTSTAYMELSSLRSEDTAVYYCARWGYYGSPLYYFDYWGQGTLVTVSS
# VL: EIVLTQSPATLSLSPGERATLSCRASSRLIYMHWYQQKPGQAPRPLIYATSNLASGIPARFSGSGSGTDFTLTISSLEPEDFAVYYCQQWNSNPPTFGQGTKVEIK
# Columns and labels:
# N87 cells = test: Inhibitory activity of payloads on cell proliferation (Cell titer glo); type: cell-based; conditions: for EC50: 4 days culture
# Procedure: (§1) The cells were incubated in an incubator at 37° C. overnight. The payload to be tested was dissolved in DMSO, and the resulting solution was aliquoted and cryopreserved at −80° C. The next day, the payload to be tested was subjected to 4-fold dilution to a maximum concentration of 10000 nM for 10 points using the respective complete medium. 100 µL of the diluted drug was added to the cell culture wells (2 replicates per well). After the cells were cultured at 37° C. for 4 days, 50 μL of Cell titer glo substrate was added to each well. After the cells were incubated for 5 min, the fluorescence values were measured.
# MCF7 cells = test: as above; type: cell-based; conditions: for EC50: 4 days culture
# Procedure: as §1
# NUGC4 cells = test: as above; type: cell-based; conditions: for EC50: 4 days culture
# Procedure: as §1
# IKZF1/3 = conditions: clinical results shown at AACR April 2022; cited from earlier work
# [1] = biological target: monkey B7H3-4IgG-his (monkey); test: ELISA, coated monkey B7H3-4IgG-his, anti-human Fc-HRP detection
# [2] = biological target: monkey B7H3-4IgG-his (monkey); test: as above; remark: listed apart in the source
# [3] = biological target: T1, human B7H3-4IgG-his (human); test: ELISA, coated human B7H3-4IgG-his, anti-human Fc-HRP detection
# [4] = biological target: T2, B7H3 on tumor cells (MCF-7, A549, PC-3) (human); test: flow cytometry on PC-3 tumor cells
# [5] = biological target: T1, human B7H3-4IgG-his (human); test: ELISA, coated human B7H3-4IgG-his, anti-human Fc-HRP detection; remark: listed apart in the source
# [6] = biological target: T2, B7H3 on tumor cells (MCF-7, A549, PC-3) (human); test: flow cytometry on A549 tumor cells
# [7] = biological target: T2, B7H3 on tumor cells (MCF-7, A549, PC-3) (human); test: flow cytometry on A549 tumor cells; remark: listed apart in the source
# [8] = biological target: T2, B7H3 on tumor cells (MCF-7, A549, PC-3) (human); test: flow cytometry on MCF-7 tumor cells
# [9] = biological target: T2, B7H3 on tumor cells (MCF-7, A549, PC-3) (human); test: flow cytometry on MCF-7 tumor cells; remark: listed apart in the source
molecule,measurement,setting,value
"CN(CCCc1ccc(NC(=O)NCc2ccc3c(c2)C(=O)N(C2CCC(=O)NC2=O)C3=O)cc1Cl)C(=O)CO (stereo not drawn) [PL-3, N-(3-(2-chloro-4-(3-((2-(2,6-dioxopiperidin-3-yl)-1,3-dioxoisoindol-5-yl)methyl)ureido)phenyl)propyl)-2-hydroxy-N-methylacetamide]",EC50,N87 cells; 96 h,851 nM
"CN(CCCc1ccc(NC(=O)NCc2ccc3c(c2)CN(C2CCC(=O)NC2=O)C3=O)cc1)C(=O)CO (stereo not drawn) [PL-5, N-(3-(4-(3-(2-(2,6-dioxopiperidin-3-yl)-1-oxoisoindolin-5-methyl)ureido)phenyl)propyl)-2-hydroxy-N-methylacetamide]",EC50,"MCF7 cells; Homo sapiens, MCF7, 96 h",228 nM
same,EC50,N87 cells; 96 h,1590 nM
same,EC50,"NUGC4 cells; Homo sapiens, NUGC-4, 96 h",502 nM
O=C1CC[C@H](N2C(=O)c3cccc4c(Cc5ccc(CN6CCOCC6)cc5)ccc2c34)C(=O)N1 [CFT7455],dose-limiting toxicity in the clinic,IKZF1/3,decreased neutrophil was dose-limiting
CNCCOCCc1ccc(NC(=O)NCc2ccc3c(c2)CN(C2CCC(=O)NC2=O)C3=O)cc1Cl (stereo not drawn) [Control compound 1],EC50,"MCF7 cells; Homo sapiens, MCF7, 96 h",983 nM
same,EC50,N87 cells; 96 h,572 nM
same,EC50,"NUGC4 cells; Homo sapiens, NUGC-4, 96 h",345 nM
"CN(CCOCCc1ccc(NC(=O)NCc2ccc3c(c2)CN(C2CCC(=O)NC2=O)C3=O)cc1Cl)C(=O)CO (stereo not drawn) [PL-4, N-(2-chloro-4-(3-(2-(2,6-dioxopiperidin-3-yl)-1-oxoisoindolin-5-methyl)ureido)phenethoxy)ethyl-2-hydroxy-N-methylacetamide]",inhibitory activity on the proliferation of MCF7 cells (in words),MCF7 cells,significantly superior to that of control compound 1
same,EC50,MCF7 cells,44.7 nM
same,inhibitory activity on the proliferation of N87 cells (in words),N87 cells,significantly superior to that of control compound 1
same,EC50,N87 cells,36.1 nM
same,inhibitory activity on the proliferation of NUGC4 cells (in words),NUGC4 cells,significantly superior to that of control compound 1
same,EC50,NUGC4 cells,43.2 nM
"CN(CCCc1ccc(NC(=O)NCc2ccc3c(c2)CN(C2CCC(=O)NC2=O)C3=O)cc1Cl)C(=O)CO (stereo not drawn) [PL-1, N-(3-(2-chloro-4-(3-((2-(2,6-dioxopiperidin-3-yl)-1-oxoisoindolin-5-yl)methyl)ureido)phenyl)propyl)-2-hydroxy-N-methylacetamide]",inhibitory activity on the proliferation of MCF7 cells (in words),MCF7 cells,significantly superior to that of control compound 1
same,EC50,"MCF7 cells; Homo sapiens, MCF7, 96 h",62.1 nM
same,inhibitory activity on the proliferation of N87 cells (in words),N87 cells,significantly superior to that of control compound 1
same,EC50,N87 cells; 96 h,14.3 nM
CN(CCCc1ccc(C(F)(F)C(=O)NCc2ccc3c(c2)CN(C2CCC(=O)NC2=O)C3=O)cc1Cl)C(=O)CO (stereo not drawn) [PL-2],EC50,N87 cells; 96 h,193 nM
B1,EC50,[1],3.92 nM
same,EC50,[2],0.167 nM
same,EC50,[3],0.048 nM
same,EC50,[4],0.618 nM
same,Maximum MFI,[4],6440
same,EC50,[5],0.0519 nM
same,EC50,[6],1.86 nM
same,Maximum MFI,[6],8270
same,EC50,[7],1.05 nM
same,Maximum MFI,[7],48000
same,EC50,[8],1.36 nM
same,Maximum MFI,[8],63200
same,EC50,[9],1.71 nM
same,Maximum MFI,[9],84000
